Experimental data: PubChem BioAssay (NCI)
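Cells were grown in 96-well plates and exposed to each compound for 48 hours at five concentrations; endpoints were interpolated linearly between bracketing concentrations, or set to the highest concentration if not reached. Abbreviation: GI50, concentration required for 50% inhibition of growth. TGI denotes the concentration required for complete inhibition of growth.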

Experiments:
Experiment in all cases: NCI tumour cell line growth inhibition, 48 h
786-0 renal = test system: 786-0 renal
A498 renal = test system: A498 renal
A549 NSCLC = test system: A549 NSCLC
ACHN renal = test system: ACHN renal
BT-549 breast = test system: BT-549 breast
CAKI-1 renal = test system: CAKI-1 renal
CCRF-CEM leukemia = test system: CCRF-CEM leukemia
COLO 205 colon = test system: COLO 205 colon
DU-145 prostate = test system: DU-145 prostate
EKVX NSCLC = test system: EKVX NSCLC
HCC-2998 colon = test system: HCC-2998 colon
HCT-116 colon = test system: HCT-116 colon
HCT-15 colon = test system: HCT-15 colon
HL-60(TB) leukemia = test system: HL-60(TB) leukemia
HOP-62 NSCLC = test system: HOP-62 NSCLC
HOP-92 NSCLC = test system: HOP-92 NSCLC
HS 578T breast = test system: HS 578T breast
HT29 colon = test system: HT29 colon
IGROV1 ovarian = test system: IGROV1 ovarian
K-562 leukemia = test system: K-562 leukemia
KM12 colon = test system: KM12 colon
LOX IMVI melanoma = test system: LOX IMVI melanoma
M14 melanoma = test system: M14 melanoma
MALME-3M melanoma = test system: MALME-3M melanoma
MCF7 breast = test system: MCF7 breast
MDA-MB-231 breast = test system: MDA-MB-231 breast
MDA-MB-435 = test system: MDA-MB-435
MOLT-4 leukemia = test system: MOLT-4 leukemia
NCI-H226 lung = test system: NCI-H226 lung
NCI-H23 lung = test system: NCI-H23 lung
NCI-H460 lung = test system: NCI-H460 lung
NCI-H522 lung = test system: NCI-H522 lung
NCI/ADR-RES ovarian = test system: NCI/ADR-RES ovarian
OVCAR-3 ovarian = test system: OVCAR-3 ovarian
OVCAR-4 ovarian = test system: OVCAR-4 ovarian
OVCAR-5 ovarian = test system: OVCAR-5 ovarian
OVCAR-8 ovarian = test system: OVCAR-8 ovarian
PC-3 prostate = test system: PC-3 prostate
RPMI-8226 leukemia = test system: RPMI-8226 leukemia
RXF 393 renal = test system: RXF 393 renal
SF-268 CNS = test system: SF-268 CNS
SF-295 CNS = test system: SF-295 CNS
SF-539 CNS = test system: SF-539 CNS
SK-MEL-2 melanoma = test system: SK-MEL-2 melanoma
SK-MEL-28 melanoma = test system: SK-MEL-28 melanoma
SK-MEL-5 melanoma = test system: SK-MEL-5 melanoma
SK-OV-3 ovarian = test system: SK-OV-3 ovarian
SN12C renal = test system: SN12C renal
SNB-19 CNS = test system: SNB-19 CNS
SNB-75 CNS = test system: SNB-75 CNS
SR leukemia = test system: SR leukemia
SW-620 colon = test system: SW-620 colon
T-47D breast = test system: T-47D breast
TK-10 renal = test system: TK-10 renal
U251 CNS = test system: U251 CNS
UACC-257 melanoma = test system: UACC-257 melanoma
UACC-62 melanoma = test system: UACC-62 melanoma
UO-31 renal = test system: UO-31 renal
MDA-N = test system: MDA-N

Structure (SMILES): COc1cc2nc(-c3ccc(C(F)(F)F)cc3)cc(OCCCN3CCCC3)c2cc1OC
- GI50 (786-0 renal): 1.88 µM
- TGI (786-0 renal): 6.03 µM
- GI50 (A498 renal): 1.07 µM
- TGI (A498 renal): 4.31 µM
- GI50 (A549 NSCLC): 0.685 µM
- TGI (A549 NSCLC): > 42.7 µM
- GI50 (ACHN renal): 0.754 µM
- TGI (ACHN renal): > 34.1 µM
- GI50 (BT-549 breast): 0.917 µM
- TGI (BT-549 breast): 4.95 µM
- GI50 (CAKI-1 renal): 0.245 µM
- TGI (CAKI-1 renal): 14 µM
- GI50 (CCRF-CEM leukemia): 1.08 µM
- TGI (CCRF-CEM leukemia): 9.92 µM
- GI50 (COLO 205 colon): 0.398 µM
- TGI (COLO 205 colon): 4.54 µM
- GI50 (DU-145 prostate): 0.992 µM
- TGI (DU-145 prostate): > 46.6 µM
- GI50 (EKVX NSCLC): 0.848 µM
- TGI (EKVX NSCLC): 24.5 µM
- GI50 (HCC-2998 colon): 2.07 µM
- TGI (HCC-2998 colon): 10 µM
- GI50 (HCT-116 colon): 0.333 µM
- TGI (HCT-116 colon): 4.29 µM
- GI50 (HCT-15 colon): 0.429 µM
- TGI (HCT-15 colon): 6.99 µM
- GI50 (HL-60(TB) leukemia): 1 µM
- TGI (HL-60(TB) leukemia): 5.86 µM
- GI50 (HOP-62 NSCLC): 1.42 µM
- TGI (HOP-62 NSCLC): 18.5 µM
- GI50 (HOP-92 NSCLC): 0.351 µM
- TGI (HOP-92 NSCLC): 5.68 µM
- GI50 (HS 578T breast): 2.48 µM
- TGI (HS 578T breast): 19.3 µM
- GI50 (HT29 colon): 0.429 µM
- TGI (HT29 colon): 5.85 µM
- GI50 (IGROV1 ovarian): 0.593 µM
- TGI (IGROV1 ovarian): 14.5 µM
- GI50 (K-562 leukemia): 0.445 µM
- TGI (K-562 leukemia): 4.54 µM
- GI50 (KM12 colon): 1.73 µM
- TGI (KM12 colon): 30.1 µM
- GI50 (LOX IMVI melanoma): 0.116 µM
- TGI (LOX IMVI melanoma): 0.322 µM
- GI50 (M14 melanoma): 0.303 µM
- TGI (M14 melanoma): 1.05 µM
- GI50 (MALME-3M melanoma): 1.66 µM
- TGI (MALME-3M melanoma): 5.59 µM
- GI50 (MCF7 breast): 1.12 µM
- TGI (MCF7 breast): 4.13 µM
- GI50 (MDA-MB-231 breast): 0.532 µM
- TGI (MDA-MB-231 breast): 8.23 µM
- GI50 (MDA-MB-435): 1.15 µM
- TGI (MDA-MB-435): 15.1 µM
- GI50 (MOLT-4 leukemia): 1.42 µM
- TGI (MOLT-4 leukemia): 5.09 µM
- GI50 (NCI-H226 lung): 0.737 µM
- TGI (NCI-H226 lung): 10.6 µM
- GI50 (NCI-H23 lung): 2.9 µM
- TGI (NCI-H23 lung): 17.6 µM
- GI50 (NCI-H460 lung): 0.597 µM
- TGI (NCI-H460 lung): 19.6 µM
- GI50 (NCI-H522 lung): 1.15 µM
- TGI (NCI-H522 lung): 25.8 µM
- GI50 (NCI/ADR-RES ovarian): 0.47 µM
- TGI (NCI/ADR-RES ovarian): 39 µM
- GI50 (OVCAR-3 ovarian): 4.07 µM
- TGI (OVCAR-3 ovarian): > 42.2 µM
- GI50 (OVCAR-4 ovarian): 3.1 µM
- TGI (OVCAR-4 ovarian): > 86.7 µM
- GI50 (OVCAR-5 ovarian): 0.803 µM
- TGI (OVCAR-5 ovarian): 18.9 µM
- GI50 (OVCAR-8 ovarian): 0.826 µM
- TGI (OVCAR-8 ovarian): > 49.7 µM
- GI50 (PC-3 prostate): 1.14 µM
- TGI (PC-3 prostate): 9.79 µM
- GI50 (RPMI-8226 leukemia): 0.0786 µM
- TGI (RPMI-8226 leukemia): 1.6 µM
- GI50 (RXF 393 renal): 0.448 µM
- TGI (RXF 393 renal): 3.85 µM
- GI50 (SF-268 CNS): 3.5 µM
- TGI (SF-268 CNS): > 48.1 µM
- GI50 (SF-295 CNS): 0.393 µM
- TGI (SF-295 CNS): 1.64 µM
- GI50 (SF-539 CNS): 2.56 µM
- TGI (SF-539 CNS): 12.6 µM
- GI50 (SK-MEL-2 melanoma): 3.41 µM
- TGI (SK-MEL-2 melanoma): 11.2 µM
- GI50 (SK-MEL-28 melanoma): 1.69 µM
- TGI (SK-MEL-28 melanoma): 5.65 µM
- GI50 (SK-MEL-5 melanoma): 0.51 µM
- TGI (SK-MEL-5 melanoma): 1.28 µM
- GI50 (SK-OV-3 ovarian): 6.65 µM
- TGI (SK-OV-3 ovarian): > 53.4 µM
- GI50 (SN12C renal): 0.558 µM
- TGI (SN12C renal): > 42.7 µM
- GI50 (SNB-19 CNS): 5.23 µM
- TGI (SNB-19 CNS): 21.5 µM
- GI50 (SNB-75 CNS): 0.207 µM
- TGI (SNB-75 CNS): 4.49 µM
- GI50 (SR leukemia): 0.207 µM
- GI50 (SW-620 colon): 2.59 µM
- TGI (SW-620 colon): 29.6 µM
- GI50 (T-47D breast): 0.478 µM
- TGI (T-47D breast): 15.9 µM
- GI50 (TK-10 renal): 7.51 µM
- TGI (TK-10 renal): > 34.5 µM
- GI50 (U251 CNS): 1.31 µM
- TGI (U251 CNS): 18.8 µM
- GI50 (UACC-257 melanoma): 1.37 µM
- TGI (UACC-257 melanoma): 8.51 µM
- GI50 (UACC-62 melanoma): 1.57 µM
- TGI (UACC-62 melanoma): 6.6 µM
- GI50 (UO-31 renal): 1.59 µM
- TGI (UO-31 renal): 14.2 µM

Structure (SMILES): CN1N=C(c2ccncc2)OC1c1ccccc1F (configuration not stated)
- TGI (786-0 renal): > 100 µM
- TGI (A498 renal): > 100 µM
- TGI (A549 NSCLC): > 100 µM
- TGI (ACHN renal): > 100 µM
- TGI (CCRF-CEM leukemia): > 100 µM
- TGI (COLO 205 colon): > 100 µM
- TGI (DU-145 prostate): > 100 µM
- TGI (EKVX NSCLC): > 100 µM
- TGI (HCC-2998 colon): > 100 µM
- TGI (HCT-116 colon): > 100 µM
- TGI (HCT-15 colon): > 100 µM
- TGI (HL-60(TB) leukemia): > 100 µM
- TGI (HOP-62 NSCLC): > 100 µM
- TGI (HOP-92 NSCLC): > 100 µM
- TGI (HS 578T breast): > 100 µM
- TGI (HT29 colon): > 100 µM
- TGI (IGROV1 ovarian): > 100 µM
- TGI (K-562 leukemia): > 100 µM
- TGI (KM12 colon): > 100 µM
- TGI (LOX IMVI melanoma): > 100 µM
- TGI (M14 melanoma): > 100 µM
- TGI (MDA-MB-231 breast): > 100 µM
- TGI (MDA-MB-435): > 100 µM
- TGI (MDA-N): > 100 µM
- TGI (MOLT-4 leukemia): > 100 µM
- TGI (NCI-H226 lung): > 100 µM
- TGI (NCI-H23 lung): > 100 µM
- TGI (NCI-H460 lung): > 100 µM
- TGI (NCI-H522 lung): > 100 µM
- TGI (NCI/ADR-RES ovarian): > 100 µM
- TGI (OVCAR-3 ovarian): > 100 µM
- TGI (OVCAR-4 ovarian): > 100 µM
- TGI (OVCAR-5 ovarian): > 100 µM
- TGI (OVCAR-8 ovarian): > 100 µM
- TGI (PC-3 prostate): > 100 µM
- TGI (RPMI-8226 leukemia): > 100 µM
- TGI (RXF 393 renal): > 100 µM
- TGI (SF-268 CNS): > 100 µM
- TGI (SF-295 CNS): > 100 µM
- TGI (SF-539 CNS): > 100 µM
- TGI (SK-MEL-2 melanoma): > 100 µM
- TGI (SK-MEL-28 melanoma): > 100 µM
- TGI (SK-MEL-5 melanoma): > 100 µM
- TGI (SK-OV-3 ovarian): > 100 µM
- TGI (SN12C renal): > 100 µM
- TGI (SNB-19 CNS): > 100 µM
- TGI (SW-620 colon): > 100 µM
- TGI (T-47D breast): > 100 µM
- TGI (TK-10 renal): > 100 µM
- TGI (U251 CNS): > 100 µM
- TGI (UACC-62 melanoma): > 100 µM
- TGI (UO-31 renal): > 100 µM
